According to ChEMBL document CHEMBL1132079, “Combined NK1 and NK2 tachykinin receptor antagonists: synthesis and structure-activity relationships of novel oxazolidine analogues” (Bioorg Med Chem Lett, 1999):

What was measured:
[1] = system: Cavia porcellus; assay: In vivo inhibitory activity against SP-induced vascular hyperpermeability in guinea pig after iv administration; type: functional; conditions: read-out: ID50 (the source's name)
[2] = system: Cavia porcellus; assay: In vivo inhibitory activity against [Nle10] ]-NKA[4-10]-induced bronchoconstriction in guinea pig after iv administration; type: functional; conditions: read-out: ID50 (the source's name)
[3] = target: T1, Substance-K receptor (Cavia porcellus, UniProt Q64077); assay: Inhibitory activity against Neurokinin 2 (NK2) receptor from guinea pig ileum; type: tissue-based
T1 sequence (Q64077 whole entry): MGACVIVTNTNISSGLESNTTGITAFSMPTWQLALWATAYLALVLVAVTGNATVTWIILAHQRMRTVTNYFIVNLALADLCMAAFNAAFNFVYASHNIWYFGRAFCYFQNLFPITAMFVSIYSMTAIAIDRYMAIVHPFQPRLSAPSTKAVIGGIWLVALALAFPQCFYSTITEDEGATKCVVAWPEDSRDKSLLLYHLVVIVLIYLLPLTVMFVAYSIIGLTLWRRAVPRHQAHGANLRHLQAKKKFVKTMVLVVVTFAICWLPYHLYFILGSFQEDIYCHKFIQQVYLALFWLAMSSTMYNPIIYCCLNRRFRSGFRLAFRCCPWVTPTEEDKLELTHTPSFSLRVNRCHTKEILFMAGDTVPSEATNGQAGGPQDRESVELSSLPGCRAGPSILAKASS

[4] = target: Substance-P receptor (Cavia porcellus, UniProt P30547); assay: Inhibitory activity against Neurokinin 1 (NK1) receptor from guinea pig lung
Chain of Substance-P receptor (P30547 whole entry): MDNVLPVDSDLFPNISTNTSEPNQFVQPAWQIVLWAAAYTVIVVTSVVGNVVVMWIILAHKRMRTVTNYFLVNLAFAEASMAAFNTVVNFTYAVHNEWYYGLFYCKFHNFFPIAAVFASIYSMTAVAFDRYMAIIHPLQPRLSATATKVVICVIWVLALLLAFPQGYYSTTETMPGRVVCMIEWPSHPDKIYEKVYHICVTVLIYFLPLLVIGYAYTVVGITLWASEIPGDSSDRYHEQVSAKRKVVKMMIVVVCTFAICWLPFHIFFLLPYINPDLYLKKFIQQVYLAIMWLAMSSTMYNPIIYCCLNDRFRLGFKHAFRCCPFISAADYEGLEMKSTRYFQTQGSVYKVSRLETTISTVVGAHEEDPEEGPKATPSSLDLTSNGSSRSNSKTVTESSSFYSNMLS

Structure (SMILES) | IC50 [3] [nM] | IC50 [4] [nM] | ED50 [1] [mg/kg] | ED50 [2] [mg/kg]
COc1cc(C(=O)N2CO[C@](CCN3CCC(O)(c4ccncc4)CC3)(c3ccc(Cl)c(Cl)c3)C2)cc(OC)c1OC | 144 | 3.08 | – | –
COc1cc(C(=O)N2CO[C@](CCN3CCC4(CC3)c3ccccc3C[S+]4[O-])(c3ccc(F)c(F)c3)C2)cc(OC)c1OC (some centres undefined) | 30.3 | 25.5 | – | –
COc1cc(C(=O)N2CO[C@](CCN3CCC(C(N)=O)(c4ccccc4)CC3)(c3ccc(F)c(F)c3)C2)cc(OC)c1OC | 328 | 16.4 | – | –
COc1cc(C(=O)N2CO[C@](CCN3CCC(C(=O)N(C)C)(c4ccccc4)CC3)(c3ccc(F)c(F)c3)C2)cc(OC)c1OC | 20.4 | 42.3 | – | –
COc1cc(C(=O)N2CO[C@](CCCN3CCC(C(N)=O)(c4ccccc4)CC3)(c3ccc(Cl)c(Cl)c3)C2)cc(OC)c1OC | > 1520 | 35 | – | –
COc1ccc(C(=O)N2CO[C@](CCN3CCC(C(N)=O)(c4ccccc4)CC3)(c3ccc(Cl)c(Cl)c3)C2)cc1 | 292 | 112 | – | –
COc1cc(C(=O)N2CO[C@](CCN3CCC4(CC3)NC(=O)Cc3ccccc34)(c3ccc(Cl)c(Cl)c3)C2)cc(OC)c1OC | 4.58 | 18.3 | – | –
COc1cc(C(=O)N2CO[C@](CCN3CCC(C(N)=O)(c4ccccc4)CC3)(c3ccc(F)cc3)C2)cc(OC)c1OC | 744 | 45.6 | – | –
COc1cc(C(=O)N2CO[C@](CCN3CCC(C(N)=O)(c4ccccc4)CC3)(c3ccc(Cl)c(Cl)c3)C2)cc(OC)c1OC | 142 | 9.65 | – | –
COc1cc(C(=O)N2CO[C@](CCN3CCC4(CC3)NC(=O)Cc3ccccc34)(c3ccc(Cl)cc3)C2)cc(OC)c1OC | 5.16 | 82.2 | – | –

Now from value to molecule, other results behind:

IC50 [3] [nM] | IC50 [4] [nM] | Structure (SMILES) | ED50 [1] [mg/kg] | ED50 [2] [mg/kg]
11.4 | 10.2 | COc1cc(C(=O)N2CO[C@](CCN3CCC4(CC3)c3ccccc3C[S+]4[O-])(c3ccc(Cl)c(Cl)c3)C2)cc(OC)c1OC (some centres undefined) | 0.025 | 0.074
91.9 | 11.2 | COc1cc(C(=O)N2CO[C@](CCN3CCC(C(=O)N4CCCC4)(c4ccccc4)CC3)(c3ccc(Cl)c(Cl)c3)C2)cc(OC)c1OC | – | –
10.9 | 45 | COc1cc(C(=O)N2CO[C@](CCN3CCC4(CC3)NC(=O)Cc3ccccc34)(c3ccc(F)c(F)c3)C2)cc(OC)c1OC | – | –
11.1 | 8.94 | COc1cc(C(=O)N2CO[C@](CCN3CCC4(CC3)C[S+]([O-])c3ccccc34)(c3ccc(Cl)c(Cl)c3)C2)cc(OC)c1OC (some centres undefined) | – | –
11 | 19.2 | COc1cc(C(=O)N2CO[C@](CCN3CCC4(CC3)c3ccccc3C[S+]4[O-])(c3ccc(Cl)cc3)C2)cc(OC)c1OC (some centres undefined) | – | –
34.5 | 24.6 | COc1cc(C(=O)N2CO[C@](CCN3CCC4(CC3)c3ccccc3C[S+]4[O-])(c3ccc(F)cc3)C2)cc(OC)c1OC (some centres undefined) | – | –
